In patent US4596799A, “9H-pyrrolo[2,1-c]-1,2,4-triazolo[4,3-a][1,4]benzodiazepines” (Ciba-Geigy Corporation, priority 1985, dated 1986):

Key:
rat = experiment: Metrazole (pentylenetetrazole) test for anticonvulsant activity; assay type: in vivo; conditions: po
From the text: Anticonvulsant effects are observed, for example in the standard Metrazole (pentylenetetrazole) test for assessing anticonvulsant activity, e.g. orally in the rat as described in U.S. Pat. No. 4,479,955.

benzodiazepine receptor [1] = experiment: in vitro benzodiazepine receptor binding assay, tritiated flunitrazepam as radioactive ligand; conditions: 0.5 nM tritiated flunitrazepam; read-out: IC50, concentration required to inhibit the specific binding of tritiated flunitrazepam by 50%
Experimental: The benzodiazepine receptor binding properties indicative of the nervous system regulatory activity of said new compounds are determined in the receptor binding assay in vitro, e.g. similarly to that in Nature 266, 732 (1977) or Proc. Nat. Acad. Sci. USA 74, 3805 (1977), using tritiated flunitrazepam as the radioactive ligand. The concentration of the compounds of this invention, required to inhibit the specific binding of 0.5 nM of tritiated flunitrazepam by 50%, i.e. the IC50, is determined graphically.

benzodiazepine receptor [2] = experiment: in vivo benzodiazepine receptor binding (3H-flunitrazepam binding in brain); conditions: mouse
Experimental: In vivo benzodiazepine receptor binding is determined essentially as described in Eur. J. Pharmacol. 48, 213 (1978) and Nature 275, 551 (1978). Test compounds in a corn starch vehicle are administered orally or intraperitoneally to mice or rats. A decrease in the binding of ^3 H-flunitrazepam in the brain of drug-treated animals (as compared with the binding observed in animals treated with vehicle alone) is indicative of benzodiazepine receptor binding by the test compound.

SMILES | ED50 (rat) | IC50 (benzodiazepine receptor [1]) | inhibition of flunitrazepam binding in vivo (benzodiazepine receptor [2]; 30 mg/kg p.o.) | inhibition of flunitrazepam binding in vivo (benzodiazepine receptor [2]; 5.3 mg/kg p.o.) | inhibition of flunitrazepam binding in vivo (benzodiazepine receptor [2]; 0.6 mg/kg p.o.)
Cl.c1ccc(-c2nnc3n2-c2ccccc2Cn2cccc2-3)nc1 [Example 1, 3-(2-Pyridinyl)-9H-pyrrolo[2,1-c]-1,2,4-triazolo[4,3-a][1,4]benzodiazepine Hydrochloride] | ~3 mg/kg | ~4 nM | about 67% |  | 
Cl.Clc1ccc2c(c1)-n1c(-c3ccccn3)nnc1-c1cccn1C2 [Example 3, 6-Chloro-3-(2-pyridinyl)-9H-pyrrolo[2,1-c]-1,2,4-triazolo[4,3-a][1,4]benzodiazepine Hydrochloride] |  | ~0.7 nM |  | ~50% | 
COc1cc2c(cc1OC)-n1c(-c3ccccn3)nnc1-c1cccn1C2.Cl [Example 7f, 6,7-dimethoxy-3-(2-pyridinyl)-9H-pyrrolo[2,1-c]-1,2,4-triazolo[4,3-a][1,4]benzodiazepine hydrochloride] |  | ~1 nM | ~75% |  | 
Cl.FC(F)(F)c1ccc2c(c1)-n1c(-c3ccccn3)nnc1-c1cccn1C2 [Example 4, 6-Trifluoromethyl-3-(2-pyridinyl)-9H-pyrrolo[2,1-c]-1,2,4-triazolo[4,3-a][1,4]benzodiazepine Hydrochloride] |  | ~0.4 nM |  |  | ~50%
